The record followed here is patent US12528808B2, “Therapy for erythropoietic protoporphyria (EPP) and X-linked protoporphyria (XLP)” (UNIVERSITY OF PITTSBURGH-OF THE COMMONWEALTH SYSTEM OF …, priority 2019, dated 2026).

A short description of data set [1]: Metabolic stability assay, incubation with human liver microsomes (HLM). The note with it: remaining parent compound. Type of data set: in vitro ADME. As for the experimental part:
Metabolic Stability Assay.
After the incubation (0-60 min), the remaining parent compounds were analyzed by UPLC-QTOFMS.
On the technique in general: Liver microsomes are a subcellular fraction often used to study metabolism.

Data set [2] is described as follows: Pharmacokinetic study in mice. Type of data set: in vivo. Conditions: WT mice, 50 mg/kg by gavage, serum, FIG. 11. The procedure:
Pharmacokinetic Study in Mice.
Blood was collected at 0, 0.25, 0.5, 1, 2, 4, 8, 12, 24 h after treatment. The concentration of target compound in serum was analyzed by UPLC-QTOFMS.

The next data set deals with T1, carboxylesterase 1 (Homo sapiens, UniProt P23141).
T1 sequence (P23141 18-567): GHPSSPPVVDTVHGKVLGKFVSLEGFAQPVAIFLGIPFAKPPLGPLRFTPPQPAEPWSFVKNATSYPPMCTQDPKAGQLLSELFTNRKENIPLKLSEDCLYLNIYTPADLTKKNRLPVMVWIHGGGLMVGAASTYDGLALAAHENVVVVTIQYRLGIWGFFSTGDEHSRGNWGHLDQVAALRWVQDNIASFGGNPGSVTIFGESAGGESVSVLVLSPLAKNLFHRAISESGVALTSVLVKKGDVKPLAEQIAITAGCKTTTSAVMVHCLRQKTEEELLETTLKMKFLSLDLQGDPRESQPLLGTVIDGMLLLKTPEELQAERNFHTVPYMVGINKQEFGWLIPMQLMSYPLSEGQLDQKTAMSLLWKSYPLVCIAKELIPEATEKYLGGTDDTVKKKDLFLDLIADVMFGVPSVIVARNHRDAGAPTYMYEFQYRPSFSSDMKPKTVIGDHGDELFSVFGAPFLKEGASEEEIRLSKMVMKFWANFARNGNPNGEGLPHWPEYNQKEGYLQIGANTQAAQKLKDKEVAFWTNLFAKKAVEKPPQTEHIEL
Put plainly: Hydrolysis of tert-butyl ester group by carboxylesterase 1. The format is in vitro ADME.

Another data set concerns the target T2, ABCG2 (Homo sapiens, UniProt Q9UNQ0).
T2 construct: developed using the A549 cancer cell line; endogenous in cells; host or cells: A549 cancer cell line
T2 sequence (Q9UNQ0 1-655): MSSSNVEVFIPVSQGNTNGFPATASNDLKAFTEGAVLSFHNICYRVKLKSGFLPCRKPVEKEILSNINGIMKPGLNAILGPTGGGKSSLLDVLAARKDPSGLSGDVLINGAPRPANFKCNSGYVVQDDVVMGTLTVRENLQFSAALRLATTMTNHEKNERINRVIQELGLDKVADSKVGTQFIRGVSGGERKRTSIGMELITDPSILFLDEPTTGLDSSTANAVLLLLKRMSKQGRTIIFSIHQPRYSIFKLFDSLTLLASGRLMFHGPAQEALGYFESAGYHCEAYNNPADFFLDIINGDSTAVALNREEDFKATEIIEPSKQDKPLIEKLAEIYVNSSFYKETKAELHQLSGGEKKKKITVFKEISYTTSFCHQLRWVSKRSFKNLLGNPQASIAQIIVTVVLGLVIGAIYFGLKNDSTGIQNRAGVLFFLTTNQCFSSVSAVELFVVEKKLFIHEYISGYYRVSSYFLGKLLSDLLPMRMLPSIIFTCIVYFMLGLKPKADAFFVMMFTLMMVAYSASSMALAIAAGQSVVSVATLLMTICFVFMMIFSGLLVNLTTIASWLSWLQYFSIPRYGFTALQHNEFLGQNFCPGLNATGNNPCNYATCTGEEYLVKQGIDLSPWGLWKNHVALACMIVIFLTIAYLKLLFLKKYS
Briefly: Protoporphyrin IX (PPIX)-based ABCG2 inhibition assay using the A549 cancer cell line. The note with it: read-out: IC50, the half maximal inhibitory concentration. The source says:
A Protoporphyrin IX(PPIX)-based ABCG2 inhibition assay was developed using the A549 cancer cell line.

The test system of a further data set is Fech-mut mice. Briefly: Efficacy against EPP-associated phototoxicity in vivo (Fech-mut mouse model). The procedure:
Efficacy of ABCG2 Inhibitors Against EPP-Associated Phototoxicity In Vivo.
The Fech-mut mouse model was used as an EPP model to determine the efficacy of ABCG2 inhibitors against EPP-associated phototoxicity, the most common symptom in EPP patients (6-8). […] After 5 days' treatment, all mice were sacrificed for evaluation of skin damage.
Thirty minutes after treatment, the mice were exposed to UV light for 30 minutes. The same treatment (drug plus light exposure) was repeated once daily for 4 days. From the 5th day, drug treatment was stopped, but the light exposure was continued for 4 more days. The gross appearance of mouse skin was recorded every day. On the 9th day, all mice were sacrificed and the back skin was collected for evaluation of phototoxicity.

The next data set has as its system RBCs of Fech-mut mice. Put plainly: Effect on PPIX efflux from RBCs. The format is cell-based. The note with it: 10 μM, FIG. 14. The source says:
Effects of ABCG2 Inhibitors on PPIX Efflux from RBCs.
PPIX in RBCs and culture medium was extracted, respectively, and analyzed by UPLC-QTOFMS.

In another data set the test system is WT and Abcg2-null mice. Briefly: Chemically-induced PPIX accumulation and hepatotoxicity in WT and Abcg2-null mice. Conditions: DDC 0.1% or GSF 2.5% in diet, two weeks. As for the experimental part: Animal Studies to Determine the Role of ABCG2 in Chemically-Induced PPIX Accumulation and Hepatotoxicity
WT and Abcg2-null mice were treated with DDC (0.1% in diet) or GSF (2.5% in diet) for two weeks. In addition, hPXR and hPXR/Abcg2-null mice were treated with RIF (100 mg/Kg diet) and INH (400 mg/L drinking water) for four weeks. After the treatment, blood and liver samples were collected for evaluation of liver injury and analysis of PPIX.
Liver injury was evaluated by analyzing serum alanine aminotransaminase (ALT), aspartate aminotransferase (AST), alkaline phosphatase (ALP) (Pointe Scientific Canton, MI), and total bilirubin (Sigma-Aldrich, St. Louis, MO). These liver injury biomarkers were analyzed according to the standard procedures provided by the manufacturers. Blood toxicity was evaluated by analyzing mean corpuscular hemoglobin (MCH) (HESKA HemaTrue; Loveland, CO) and total hemoglobin (tHb) (AVOXimeter 4000; Edison, NJ).
Liver and skin tissues were first fixed in 4% formaldehyde phosphate solution overnight and then dehydrated and embedded in paraffin. […] sections were cut and stained. For hematoxylin and eosin (H&E) staining, tissue sections were stained in hematoxylin solution for 5 min, washed with tap water for 1 min, and then differentiated in 1% acetic acid solution for 1 min and followed by staining in eosin solution for 1 min. For Sirius Red Staining, tissue sections were stained in 0.1% PicroSirius Red solution for 1 h, and then washed with 1% acetic acid solution twice.

The mark [3] stands for this setting: read-out: CC50, the 50% cytotoxic concentration, MTT assay.

Entries after “also recorded” stand apart in the source; their conditions may differ. Where two headings read alike, the source gives them in different places. Some results are limits rather than exact numbers.

With `COc1ccc2c3c([nH]c2c1)[C@H](CC(C)C)N1C(=O)[C@H](CCCCNC(=O)C(C)(C)C)N(C(=O)C(C)(C)C)C(=O)[C@@H]1C3` [Compound K11, N-(4-((3S,6S,12aS)-6-isobutyl-9-methoxy-1,4-dioxo-2-pivaloyl-1,2,3,4,6,7,12,12a-octahydropyrazino[1′,2′:1,6]pyrido[3,4-b]indol-3-yl)butyl)pivalamide], in data set [1], the “HLM stability (% vs 0 min) 30 min” value amounted to 7% and the “HLM stability (% vs 0 min) 60 min” value is on record as 7%. In “MTT cytotoxicity assay”, this molecule displayed a CC50 of 39.6 µM.

For `COc1ccc2c3c([nH]c2c1)[C@H](CC(C)C)N1C(=O)[C@H](CCC(=O)OC(C)(C)C)NC(=O)[C@@H]1C3` [KO143, reference compound], in data set [2], the pharmacokinetic profile result was “poor oral pharmacokinetic profile”. Moreover, on carboxylesterase 1, the “stability (hydrolysis of tert-butyl ester group)” value is “very unstable”.

For `COc1ccc2c3c([nH]c2c1)[C@H](CC(C)C)N1C(=O)[C@H](CC(=O)NC(C)C)NC(=O)[C@@H]1C3` [Compound K31, 2-((3S,6S,12aS)-6-isobutyl-9-methoxy-1,4-dioxo-1,2,3,4,6,7,12,12a-octahydropyrazino[1′,2′:1,6]pyrido[3,4-b]indol-3-yl)-N-isopropylacetamide], the IC50 on ABCG2 is 0.27 µM. In data set [1], the “HLM stability (% vs 0 min) 30 min” value was 65% and the “HLM stability (% vs 0 min) 60 min” value turned out to be 49%. Further, the pharmacokinetic profile result in data set [2] (50 mg/kg) is given as “better pharmacokinetic profiles than KO143; also recorded: ideal pharmacokinetic profile”. Moreover, the “protection from phototoxicity in EPP mouse model” value in the data set with Fech-mut mice (Fech-mut mice pretreated 30 min, then UV light (395-410 nm) 30 min, 5 days, FIG. 12) is “fully protected the EPP mice from phototoxicity”. Besides, in the data set on Fech-mut mice (Fech-mut mice, 100 mg/kg po plus light day 1 to 4, light only from day 5, FIG. 13), the “phototoxicity after withdrawal (withdrawal test)” value is listed as “showed phototoxicity soon after the withdrawal of K31”. Further, the “PPIX efflux from RBCs” value with RBCs of Fech-mut mice is “significantly inhibited PPIX efflux from RBCs”. Also, the CC50 in the data set “MTT cytotoxicity assay” (setting [3]) was more than 100 µM.

As to `COc1ccc2c3c([nH]c2c1)[C@H](CC(C)C)N1C(=O)[C@H](CC(=O)N2CCCCC2)NC(=O)[C@@H]1C3` [Compound K25, (3S,6S,12aS)-6-isobutyl-9-methoxy-3-(2-oxo-2-(piperidin-1-yl)ethyl)-2,3,12,12a-tetrahydropyrazino[1′,2′:1,6]pyrido[3,4-b]indole-1,4(6H,7H)-dione], the IC50 at ABCG2 was found to be 3.14 µM. Besides, the CC50 in the data set “MTT cytotoxicity assay” (setting [3]) was 26.5 µM.

As to `COc1ccc2c3c([nH]c2c1)[C@H](CC(C)C)N1C(=O)[C@H](CC(=O)NCc2ccccc2)NC(=O)[C@@H]1C3` [Compound K33, N-benzyl-2-((3S,6S,12aS)-6-isobutyl-9-methoxy-1,4-dioxo-1,2,3,4,6,7,12,12a-octahydropyrazino[1′,2′:1,6]pyrido[3,4-b]indol-3-yl)acetamide], the IC50 at ABCG2 was determined as 0.25 µM. Moreover, in data set [1], the “HLM stability (% vs 0 min) 30 min” value was found to be 37% and the “HLM stability (% vs 0 min) 60 min” value was found to be 18%. Further, the CC50 in the data set “MTT cytotoxicity assay” (setting [3]) was 31.1 µM.

In the case of `CCOC(=O)C1=C(C)NC(C)=C(C(=O)OCC)C1C` [DDC, 3,5-diethoxycarbonyl-1,4-dihydrocollidine], the “liver damage, PPIX accumulation, bile plugs” value in the data set on WT and Abcg2-null mice (Abcg2-null mice) is “these effects failed to occur”; with WT and Abcg2-null mice (WT mice), “caused liver damage, PPIX accumulation, and bile plugs”.

For `COC1=CC(=O)C[C@@H](C)[C@]12Oc1c(Cl)c(OC)cc(OC)c1C2=O` [GSF, griseofulvin], the “liver damage, PPIX accumulation, bile plugs” value in the data set on WT and Abcg2-null mice (Abcg2-null mice) is “these effects failed to occur”; with WT and Abcg2-null mice (WT mice), “caused liver damage, PPIX accumulation, and bile plugs”.

On to `COc1ccc2c3c([nH]c2c1)[C@H](CC(C)C)N1C(=O)[C@H](CC(=O)NC(C)(C)C)NC(=O)[C@@H]1C3` [Compound K3, N-(tert-butyl)-2-((3S,6S,12aS)-6-isobutyl-9-methoxy-1,4-dioxo-1,2,3,4,6,7,12,12a-octahydropyrazino[1′,2′:1,6]pyrido[3,4-b]indol-3-yl)acetamide], for which the IC50 at ABCG2 is 0.18 µM. In addition, in data set [1], the “HLM stability (% vs 0 min) 30 min” value came out at 74% and the “HLM stability (% vs 0 min) 60 min” value was found to be 60%. The CC50 in “MTT cytotoxicity assay” (setting [3]) amounted to 58.9 µM.

With `COc1ccc2c3c([nH]c2c1)[C@H](CC(C)C)N1C(=O)[C@H](CC(=O)NC2CCCCC2)NC(=O)[C@@H]1C3` [Compound K23, N-cyclohexyl-2-((3S,6S,12aS)-6-isobutyl-9-methoxy-1,4-dioxo-1,2,3,4,6,7,12,12a-octahydropyrazino[1′,2′:1,6]pyrido[3,4-b]indol-3-yl)acetamide], the IC50 at ABCG2 came to 0.13 µM. In addition, in data set [1], the “HLM stability (% vs 0 min) 30 min” value stood at 45% and the “HLM stability (% vs 0 min) 60 min” value came to 26%. For the same molecule, the CC50 in “MTT cytotoxicity assay” (setting [3]) turned out to be 46.6 µM.

With `COc1ccc2c3c([nH]c2c1)[C@H](CC(C)C)N1C(=O)[C@H](CCC(=O)NC(C)C)NC(=O)[C@@H]1C3` [Compound K34, 3-((3S,6S,12aS)-6-isobutyl-9-methoxy-1,4-dioxo-1,2,3,4,6,7,12,12a-octahydropyrazino[1′,2′:1,6]pyrido[3,4-b]indol-3-yl)-N-isopropylpropanamide], the pharmacokinetic profile entry in data set [2] is “better pharmacokinetic profiles than KO143”.

Turning to `COc1ccc2c3c([nH]c2c1)[C@H](CC(C)C)N1C(=O)[C@H](CCC(=O)NC(C)(C)C)NC(=O)[C@@H]1C3` [Compound K2, N-(tert-butyl)-3-((3S,6S,12aS)-6-isobutyl-9-methoxy-1,4-dioxo-1,2,3,4,6,7,12,12a-octahydropyrazino[1′,2′:1,6]pyrido[3,4-b]indol-3-yl)propanamide], the pharmacokinetic profile result in data set [2] was “better pharmacokinetic profiles than KO143”.
